Data from the supplement of paper PMC10307832.

Legend:
Assay in all cases: relative viability (nuclei count vs DMSO), 5 days (fraction); higher = more cells survive
[1] = tested on: LCLC-97TM1
Method in brief: (§1)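 Dosing by pin tool came one day after lung cancer cell lines were seeded in 1536-well plates, using either one drug or a fixed anchor-drug dose plus five library-drug doses (not always all listed) in √10 steps. After 5 days, nuclei were counted on 4× images. Relative viability is treated-well nuclei count divided by vehicle-well nuclei count, and values are medians of duplicate plates.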

[2] = tested on: RERF-LC-KJ
Method in brief: as §1

[3] = tested on: LK-2
Method in brief: as §1

[4] = tested on: NCI-H661
Method in brief: as §1

[5] = tested on: PC-14
Method in brief: as §1

[6] = tested on: NCI-H1650
Method in brief: as §1

[7] = tested on: NCI-H2342
Method in brief: as §1

[8] = tested on: NCI-H1755
Method in brief: as §1

[9] = tested on: EKVX
Method in brief: as §1

[10] = tested on: NCI-H322M
Method in brief: as §1

[11] = tested on: NCI-H2228
Method in brief: as §1

[12] = tested on: NCI-H2405
Method in brief: as §1

[13] = tested on: NCI-H520
Method in brief: as §1

[14] = tested on: H3255
Method in brief: as §1

[15] = tested on: NCI-H1975
Method in brief: as §1

[16] = tested on: NCI-H1734
Method in brief: as §1

[17] = tested on: PC-3 [JPC-3]
Method in brief: as §1

[18] = tested on: HCC-15
Method in brief: as §1

[19] = tested on: HCC-827
Method in brief: as §1

[20] = tested on: CAL-12T
Method in brief: as §1

[21] = tested on: NCI-H1355
Method in brief: as §1

[22] = tested on: NCI-H1563
Method in brief: as §1

COc1nc(C)cnc1NS(=O)(=O)c1cccnc1-c1ccc(-c2nnco2)cc1 [Zibotentan] + COc1cccc2cc(-c3nc([C@H]4CC[C@H](C(=O)O)CC4)n4ncnc(N)c34)[nH]c12 [OSI-027] (partner 0.5 µM)
relative viability ([1]; first compound 0.08 µM): 0.602
relative viability ([1]; first compound 0.253 µM): 0.72
relative viability ([1]; first compound 0.8 µM): 0.606
relative viability ([1]; first compound 2.53 µM): 0.49
relative viability ([2]; first compound 0.08 µM): 0.609
relative viability ([2]; first compound 0.8 µM): 0.521
relative viability ([2]; first compound 2.53 µM): 0.646
relative viability ([3]; first compound 0.08 µM): 0.207
relative viability ([3]; first compound 0.253 µM): 0.173
relative viability ([3]; first compound 0.8 µM): 0.244
relative viability ([3]; first compound 2.53 µM): 0.216
relative viability ([4]; first compound 0.08 µM): 0.801
relative viability ([4]; first compound 0.253 µM): 0.671
relative viability ([4]; first compound 0.8 µM): 0.705
relative viability ([4]; first compound 2.53 µM): 0.756
relative viability ([5]; first compound 0.08 µM): 0.926
relative viability ([5]; first compound 0.253 µM): 0.651
relative viability ([5]; first compound 0.8 µM): 1.06
relative viability ([5]; first compound 2.53 µM): 0.929
relative viability ([6]; first compound 0.08 µM): 0.579
relative viability ([6]; first compound 0.8 µM): 0.644
relative viability ([6]; first compound 2.53 µM): 0.716
relative viability ([7]; first compound 0.08 µM): 0.621
relative viability ([7]; first compound 0.253 µM): 0.559
relative viability ([7]; first compound 0.8 µM): 0.576
relative viability ([7]; first compound 2.53 µM): 0.758
relative viability ([8]; first compound 0.08 µM): 0.716
relative viability ([8]; first compound 0.253 µM): 0.685
relative viability ([8]; first compound 0.8 µM): 0.715
relative viability ([8]; first compound 2.53 µM): 0.793
relative viability ([9]; first compound 0.08 µM): 0.715
relative viability ([9]; first compound 0.253 µM): 0.706
relative viability ([9]; first compound 0.8 µM): 0.695
relative viability ([9]; first compound 2.53 µM): 0.77
relative viability ([10]; first compound 0.08 µM): 0.578
relative viability ([10]; first compound 0.253 µM): 0.508
relative viability ([10]; first compound 0.8 µM): 0.657
relative viability ([10]; first compound 2.53 µM): 0.6
relative viability ([11]; first compound 0.08 µM): 0.623
relative viability ([11]; first compound 0.253 µM): 0.571
relative viability ([11]; first compound 0.8 µM): 0.484
relative viability ([11]; first compound 2.53 µM): 0.659
relative viability ([12]; first compound 0.08 µM): 0.694
relative viability ([12]; first compound 0.253 µM): 0.657
relative viability ([12]; first compound 0.8 µM): 0.663
relative viability ([12]; first compound 2.53 µM): 0.627
relative viability ([13]; first compound 0.08 µM): 0.295
relative viability ([13]; first compound 0.253 µM): 0.24
relative viability ([13]; first compound 0.8 µM): 0.264
relative viability ([13]; first compound 2.53 µM): 0.31
relative viability ([14]; first compound 0.08 µM): 0.536
relative viability ([14]; first compound 0.253 µM): 0.542
relative viability ([14]; first compound 0.8 µM): 0.576
relative viability ([14]; first compound 2.53 µM): 0.526
relative viability ([15]; first compound 0.08 µM): 0.783
relative viability ([15]; first compound 0.253 µM): 0.696
relative viability ([15]; first compound 0.8 µM): 0.566
relative viability ([15]; first compound 2.53 µM): 0.661
relative viability ([16]; first compound 0.08 µM): 0.655
relative viability ([16]; first compound 0.253 µM): 0.558
relative viability ([16]; first compound 0.8 µM): 0.604
relative viability ([16]; first compound 2.53 µM): 0.668
relative viability ([17]; first compound 0.08 µM): 0.789
relative viability ([17]; first compound 0.253 µM): 0.791
relative viability ([17]; first compound 0.8 µM): 0.737
relative viability ([17]; first compound 2.53 µM): 0.89
relative viability ([18]; first compound 0.08 µM): 0.644
relative viability ([18]; first compound 0.8 µM): 0.759
relative viability ([18]; first compound 2.53 µM): 0.781
relative viability ([19]; first compound 0.08 µM): 0.826
relative viability ([19]; first compound 0.253 µM): 0.836
relative viability ([19]; first compound 0.8 µM): 0.754
relative viability ([19]; first compound 2.53 µM): 0.767
relative viability ([20]; first compound 0.08 µM): 0.559
relative viability ([20]; first compound 0.253 µM): 0.551
relative viability ([20]; first compound 0.8 µM): 0.614
relative viability ([20]; first compound 2.53 µM): 0.629
relative viability ([21]; first compound 0.08 µM): 0.375
relative viability ([21]; first compound 0.253 µM): 0.377
relative viability ([21]; first compound 0.8 µM): 0.458
relative viability ([21]; first compound 2.53 µM): 0.492
relative viability ([22]; first compound 0.08 µM): 0.767
relative viability ([22]; first compound 0.8 µM): 0.761
relative viability ([22]; first compound 2.53 µM): 0.77
